From patent US8188284B2, “2-aminoquinolines” (Hoffman-La Roche Inc., priority 2008, dated 2012)

biological target: T1, recombinant human 5-HT5A receptor (Homo sapiens, UniProt P47898); assay: [3H]LSD radioligand binding assay; conditions: not given
T1 construct: expressed in transfected cells; host or cells: HEK-EBNA (Human Embryonic Kidney-EBNA) cells, transient cDNA expression, membranes
Procedure: A [^3H]LSD radioligand binding assay was used to determine the affinity of the compounds for the recombinant human 5-HT5A receptor, in membranes from transiently (cDNA) expressed 5-HT5A receptors in Human Embryonic Kidney-EBNA (HEK-EBNA) cells. Assay buffer consisted of Tris (50 mM) buffer containing 1 mM EGTA, 10 mM MgCl2 (pH 7.4) and 10 μM pargyline. The binding assay was carried out in 96-well-plates in the presence of [^3H]LSD (approximately 1 nM), approximately 2 μg/well of membrane protein, and 0.5 mg of Ysi-poly-1-lysine SPA beads in a final volume of 200 μl of buffer. Non-specific binding was defined using methiothepin 2 μM. Compounds were tested at 10 concentrations. All assays were conducted in duplicate and repeated at least two times. Assay plates were incubated for 120 min at room temperature before centrifugation. Bound ligand was determined using a Packard Topcount scintillation counter. IC50 values were calculated using a non-linear curve fitting program and Ki values calculated using the Cheng-Prussoff equation.

T1 sequence (P47898 whole entry): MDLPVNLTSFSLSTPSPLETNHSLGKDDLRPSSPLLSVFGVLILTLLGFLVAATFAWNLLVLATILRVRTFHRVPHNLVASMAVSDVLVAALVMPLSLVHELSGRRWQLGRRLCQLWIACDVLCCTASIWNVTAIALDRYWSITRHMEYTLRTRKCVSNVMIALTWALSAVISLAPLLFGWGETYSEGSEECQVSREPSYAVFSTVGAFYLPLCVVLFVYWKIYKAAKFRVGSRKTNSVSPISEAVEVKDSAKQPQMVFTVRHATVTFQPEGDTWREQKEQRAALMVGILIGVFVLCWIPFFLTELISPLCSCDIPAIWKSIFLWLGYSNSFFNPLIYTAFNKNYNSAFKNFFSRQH

Compound | Ki
COc1ccc(OC(=O)Nc2ccc3nc(N[C@@H]4CCc5ccccc54)ccc3c2)cc1 [Example 47, [2-((R)-Indan-1-ylamino)-quinolin-6-yl]-carbamic acid 4-methoxy-phenyl ester] | 20 nM

same assay, conditions: [3H]LSD (approximately 1 nM), membranes from HEK-EBNA cells transiently expressing 5-HT5A receptors; Ki calculated from IC50 using the Cheng-Prussoff equation; read-out: Ki/nM 5-HT5A

Compound | Ki
COc1cccc2c1C(Nc1ccc3cc(Nc4cccc(C)n4)ccc3n1)CC2 (racemic) [Example 94, rac-N^2-(7-Methoxy-indan-1-yl)-N^6-(6-methyl-pyridin-2-yl)-quinoline-2,6-diamine] | 3.4 nM
COc1cccc2c1C(Nc1ccc3cc(NC(=O)Cn4ccnc4)ccc3n1)CC2 (racemic) [Example 100, rac-2-Imidazol-1-yl-N-[2-(7-methoxy-indan-1-ylamino)-quinolin-6-yl]-acetamide] | 21.2 nM
Fc1ccc2c(c1)CCC2Nc1ccc2cc(Nc3cccc(C(F)(F)F)n3)ccc2n1 (racemic) [Example 102, rac-N^2-(5-Fluoro-indan-1-yl)-N^6-(6-trifluoromethyl-pyridin-2-yl)-quinoline-2,6-diamine] | 19.1 nM
Cc1cccc(Nc2ccc3nc(NC4CCc5cc(F)ccc54)ccc3c2)n1 (racemic) [Example 105, rac-N^2-(5-Fluoro-indan-1-yl)-N^6-(6-methyl-pyridin-2-yl)-quinoline-2,6-diamine] | 6.8 nM
COc1cccc2c1C(Nc1ccc3cc(Nc4cccc(C)n4)ccc3n1)CO2 (racemic) [Example 112, rac-N^2-(4-Methoxy-2,3-dihydro-benzofuran-3-yl)-N^6-(6-methyl-pyridin-2-yl)-quinoline-2,6-diamine] | 8 nM
COc1cccc2c1C(Nc1ccc3cc(NC(=O)Cc4ccncc4)ccc3n1)CC2 (racemic) [Example 115, rac-N-[2-(7-Methoxy-indan-1-ylamino)-quinolin-6-yl]-2-pyridin-4-yl-acetamide] | 15 nM
COc1cccc(COc2ccc3nc(N[C@@H]4CCc5ccccc54)ccc3c2)c1 [Example 2, (R)-Indan-1-yl-[6-(3-methoxy-benzyloxy)-quinolin-2-yl]-amine] | 92.4 nM
c1cncc(CNc2ccc3nc(N[C@@H]4CCc5ccccc54)ccc3c2)c1 [Example 4, N^2—(R)-Indan-1-yl-N^6-pyridin-3-ylmethyl-quinoline-2,6-diamine] | 9.8 nM
c1ccc2c(c1)CC[C@H]2Nc1ccc2cc(NCCCn3ccnc3)ccc2n1 [Example 9, N^6-(3-Imidazol-1-yl-propyl)-N^2—(R)-indan-1-yl-quinoline-2,6-diamine] | 176 nM
c1ccc2c(c1)CC[C@H]2Nc1ccc2cc(NCc3cccc4[nH]ccc34)ccc2n1 [Example 11, N^2—(R)-Indan-1-yl-N^6-(1-H-indol-4-ylmethyl)-quinoline-2,6-diamine] | 9.4 nM
c1ccc2c(c1)CC[C@H]2Nc1ccc2cc(NCc3ncc[nH]3)ccc2n1 [Example 12, N^6-(1H-Imidazol-2-ylmethyl)-N^2—(R)-indan-1-yl-quinoline-2,6-diamine] | 16.6 nM
c1ccc2c(c1)CC[C@H]2Nc1ccc2cc(NCc3nccs3)ccc2n1 [Example 13, N^2—(R)-Indan-1-yl-N^6-thiazol-2-ylmethyl-quinoline-2,6-diamine] | 7.6 nM
O=S(=O)(Nc1ccc2nc(N[C@@H]3CCc4ccccc43)ccc2c1)c1ccc(F)cc1 [Example 14, 4-Fluoro-N-[2-((R)-indan-1-ylamino)-quinolin-6-yl]-benzenesulfonamide] | 36.4 nM
c1ccc2c(c1)CC[C@H]2Nc1ccc2cc(NCc3ccncc3)ccc2n1 [Example 15, N^2—(R)-Indan-1-yl-N^6-pyridin-4-ylmethyl-quinoline-2,6-diamine] | 33.7 nM
O=C(Nc1ccccc1)Nc1ccc2nc(N[C@@H]3CCc4ccccc43)ccc2c1 [Example 16, 1-[2-((R)-Indan-1-ylamino)-quinolin-6-yl]-3-phenyl-urea] | 4.9 nM
Cc1nc[nH]c1CNc1ccc2nc(N[C@@H]3CCc4ccccc43)ccc2c1 [Example 17, N^2—(R)-Indan-1-yl-N^6-(5-methyl-3-H-imidazol-4-ylmethyl)-quinoline-2,6-diamine] | 7.6 nM
c1ccc2c(c1)CC[C@H]2Nc1ccc2cc(NCc3cc[nH]n3)ccc2n1 [Example 18, N^2—(R)-Indan-1-yl-N^6-(1-H-pyrazol-3-ylmethyl)-quinoline-2,6-diamine] | 9 nM
O=C(Nc1ccc(F)cc1)Nc1ccc2nc(N[C@@H]3CCc4ccccc43)ccc2c1 [Example 19, 1-(4-Fluoro-phenyl)-3-[2-((R)-indan-1-ylamino)-quinolin-6-yl]-urea] | 6.5 nM
O=C(Nc1cccc(F)c1)Nc1ccc2nc(N[C@@H]3CCc4ccccc43)ccc2c1 [Example 20, 1-(3-Fluoro-phenyl)-3-[2-((R)-indan-1-ylamino)-quinolin-6-yl]-urea] | 7.8 nM
COc1ccc(NC(=O)Nc2ccc3nc(N[C@@H]4CCc5ccccc54)ccc3c2)cc1 [Example 21, 1-[2-((R)-Indan-1-ylamino)-quinolin-6-yl]-3-(4-methoxy-phenyl)-urea] | 6.3 nM

Compound | Ki
COc1cccc(NC(=O)Nc2ccc3nc(N[C@@H]4CCc5ccccc54)ccc3c2)c1 [Example 22, 1-[2-((R)-Indan-1-ylamino)-quinolin-6-yl]-3-(3-methoxy-phenyl)-urea] | 21.9 nM
COc1ccccc1NC(=O)Nc1ccc2nc(N[C@@H]3CCc4ccccc43)ccc2c1 [Example 23, 1-[2-((R)-Indan-1-ylamino)-quinolin-6-yl]-3-(2-methoxy-phenyl)-urea] | 25.6 nM
O=C(Nc1ccc2nc(N[C@@H]3CCc4ccccc43)ccc2c1)Nc1ccccc1F [Example 25, 1-(2-Fluoro-phenyl)-3-[2-((R)-indan-1-ylamino)-quinolin-6-yl]-urea] | 4.2 nM
C[C@@H](NC(=O)Nc1ccc2nc(N[C@@H]3CCc4ccccc43)ccc2c1)c1ccccc1 [Example 27, 1-[2-((R)-Indan-1-ylamino)-quinolin-6-yl]-3-((R)-1-phenyl-ethyl)-urea] | 9.8 nM
C[C@H](NC(=O)Nc1ccc2nc(N[C@@H]3CCc4ccccc43)ccc2c1)c1ccccc1 [Example 28, 1-[2-((R)-Indan-1-ylamino)-quinolin-6-yl]-3-((S)-1-phenyl-ethyl)-urea] | 36.7 nM
COc1ccc(CNC(=O)Nc2ccc3nc(N[C@@H]4CCc5ccccc54)ccc3c2)cc1 [Example 29, 1-[2-((R)-Indan-1-ylamino)-quinolin-6-yl]-3-(4-methoxy-benzyl)-urea] | 16.5 nM
O=C(Nc1ccc(Cl)nc1)Nc1ccc2nc(N[C@@H]3CCc4ccccc43)ccc2c1 [Example 31, 1-(6-Chloro-pyridin-3-yl)-3-[2-((R)-indan-1-ylamino)-quinolin-6-yl]-urea] | 16.4 nM
O=C(Nc1ccnc(Cl)c1)Nc1ccc2nc(N[C@@H]3CCc4ccccc43)ccc2c1 [Example 33, 1-(2-Chloro-pyridin-4-yl)-3-[2-((R)-indan-1-ylamino)-quinolin-6-yl]-urea] | 18.2 nM
CN(c1ccc(Cl)cc1)S(=O)(=O)Nc1ccc2nc(N[C@@H]3CCc4ccccc43)ccc2c1 [Example 40, N-(4-chlorophenyl)-N′-{2-[(1R)-2,3-dihydro-1H-inden-1-ylamino]quinolin-6-yl}-N-methylsulfamide] | 29.6 nM
CN(c1ccc(F)cc1)S(=O)(=O)Nc1ccc2nc(N[C@@H]3CCc4ccccc43)ccc2c1 [Example 41, N′-{2-[(1R)-2,3-dihydro-1H-inden-1-ylamino]quinolin-6-yl}-N-(4-fluorophenyl)-N-methylsulfamide] | 25.8 nM
Cc1noc(C)c1NC(=O)Nc1ccc2nc(N[C@@H]3CCc4ccccc43)ccc2c1 [Example 42, 1-(3,5-Dimethyl-isoxazol-4-yl)-3-[2-((R)-indan-1-ylamino)-quinolin-6-yl]-urea] | 25.8 nM
Cn1cncc1CNC(=O)Nc1ccc2nc(N[C@@H]3CCc4ccccc43)ccc2c1 [Example 45, 1-[2-((R)-Indan-1-ylamino)-quinolin-6-yl]-3-(3-methyl-3H-imidazol-4-ylmethyl)-urea] | 10.6 nM
O=C(Nc1ccc2nc(N[C@@H]3CCc4ccccc43)ccc2c1)c1ccc(F)cc1 [Example 50, 4-Fluoro-N-[2-((R)-indan-1-ylamino)-quinolin-6-yl]-benzamide] | 72.5 nM
O=C(NCc1ccc2nc(N[C@@H]3CCc4ccccc43)ccc2c1)c1ccc(F)cc1 [Example 54, 4-Fluoro-N-[2-((R)-indan-1-ylamino)-quinolin-6-ylmethyl]-benzamide] | 141 nM
Cn1nccc1NC(=O)Nc1ccc2nc(N[C@@H]3CCc4ccccc43)ccc2c1 [Example 58, 1-[2-((R)-Indan-1-ylamino)-quinolin-6-yl]-3-(2-methyl-2H-pyrazol-3-yl)-urea] | 20.3 nM
c1ccc2c(c1)CC[C@H]2Nc1ccc2cc(-n3ccnc3)ccc2n1 [Example 61, (6-Imidazol-1-yl-quinolin-2-yl)-(R)-indan-1-yl-amine] | 422 nM
O=C(NC(=S)Nc1ccc2nc(N[C@@H]3CCc4ccccc43)ccc2c1)c1ccccc1 [Example 63, 1-Benzoyl-3-[2-((R)-indan-1-ylamino)-quinolin-6-yl]-thiourea] | 390 nM
Fc1ccc(CNCc2ccc3nc(N[C@@H]4CCc5ccccc54)ccc3c2)cc1 [Example 64, {6-[(4-Fluoro-benzylamino)-methyl]-quinolin-2-yl}-(R)-indan-1-yl-amine] | 348 nM
FC(F)(F)c1cccc(Nc2ccc3nc(N[C@@H]4CCc5ccccc54)ccc3c2)n1 [Example 80, N^2—(R)-Indan-1-yl-N^6-(6-trifluoromethyl-pyridin-2-yl)-quinoline-2,6-diamine] | 24.1 nM
